These are literature values, as cited in patent publication US20170119742A1, “MEDICAMENT FOR PREVENTING AND/OR TREATING STRESS DISEASES” (ONO PHARMACEUTICAL CO., LTD., priority 2014, published 2017).

For the series, the target named is brain NK1 receptors (Homo sapiens, UniProt P25103). To be noted: Non-Patent Document 5; cited from earlier work.

Bounds are passed on as bounds.

Chain of brain NK1 receptors (P25103 whole entry): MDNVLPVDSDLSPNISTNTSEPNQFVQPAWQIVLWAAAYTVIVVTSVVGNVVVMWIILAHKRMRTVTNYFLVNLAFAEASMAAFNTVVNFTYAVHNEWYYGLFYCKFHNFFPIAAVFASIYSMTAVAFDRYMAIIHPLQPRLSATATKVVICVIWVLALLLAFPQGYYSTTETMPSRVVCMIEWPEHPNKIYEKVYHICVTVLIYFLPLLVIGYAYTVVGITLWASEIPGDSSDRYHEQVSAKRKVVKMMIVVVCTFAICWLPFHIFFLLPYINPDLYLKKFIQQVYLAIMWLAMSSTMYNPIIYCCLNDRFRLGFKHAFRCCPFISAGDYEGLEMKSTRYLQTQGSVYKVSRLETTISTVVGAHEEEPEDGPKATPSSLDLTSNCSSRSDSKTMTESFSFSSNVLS

For the compound `C[C@@H](O[C@H]1OCCN(Cc2n[nH]c(=O)[nH]2)[C@H]1c1ccc(F)cc1)c1cc(C(F)(F)F)cc(C(F)(F)F)c1` [aprepitant], the “brain NK1 receptor occupancy necessary for expressing the efficacy” value is reported as ≥ 90% and the “plasma concentration at 90% or more brain NK1 receptor occupancy” value is ≥ 100 ng/mL.
